Results reported in patent US5179109A (priority 1988, dated 1993).
“Also recorded” adds a separate entry of the source. Like-named read-outs stand apart in the source and are kept apart here.

Columns and labels:
site of PCP = experiment: Affinity for the PCP site, competition with (^3 H)PCP on rat brain homogenates; assay type: binding; settings: rat brain homogenate, pH 7.7, 25° C., 1 nmole tritiated ligand
[1] = target: cerebral cholinergic muscarinic receptor; assay type: binding, rat; settings: for IC50: rat brain homogenate, read-out: ^3 HQNB IC50; for ^3 HQNB/^3 HTCP: ratio of IC50
[2] = Subcutaneous LD50 in the rat; settings: in vivo, sc
Swiss mice = experiment: Simple rotary bar test (dose at which 50% of the animals drop); assay type: in vivo; settings: for ED50: Mus musculus, sc
Protocol: In this example, the properties of compounds 1 to 5 and 8 to 11 are tested on Swiss mice.
Different doses of the compounds to be tested are administered subcutaneously to the mice and the latter are then placed in batches of 10 on a rotary bar, being separated from one another by separating disks. This bar is made from scraped wood, has a diameter of 3 cm and is moved horizontally with a uniform circular movement about its axis at a speed of 10 rpm.
Determination takes place of the ED50, which is the dose at which 50% of the animals drop, the dose being expressed in mg/kg.

[3] = tested on: cortical and hippocampal neurons; experiment: In vitro neuron culture survival after 2 months, count of neurons (Example 23); assay type: cell-based, rat; settings: for number of neurons which survived after 2 months culturing: single dose at start of third week, TCP 2.5 and 20, compound 9 and MK801 2.5 and 5 μmole/l, control 50 neurons/mm^2
Protocol: This example also illustrates the effect of the arylcyclohexylamines according to the invention on the in vitro neuron culture survival. As in example 21, cortical and hippocampal neuron cultures are prepared. At the start of the third culturing week, the cells are treated with a single dose of the compound to be tested and culturing is continued for two months. At the end of this period, the cells which were fixed and dyed to reveal the specific enolase of the neurons are subject to counts in order to determine the quantity of cells per surface unit.
The results obtained are given in FIG. 1, which is a histogram indicating the number of cells/mm^2 which survived after 2 months culturing.
The results are given for the control, i.e. for untreated cultures, cultures treated with 2.5 and 20 μmole/l of TCP, cultures treated by compound no. 9 at concentrations of 2.5 and 5 μmole/l and cultures treated by compound MK801 at concentrations of 2.5 and 5 μmole/l. Compound MK801, which is known to have a neuroprotection activity, is (+)-methyl-5-dihydro-10,11(5H)dibenzo(A,D) cyclohepteneimine-5,10 of formula: [drawing 38] From FIG. 1 it can be seen that the control cultures, after surviving for 2 months, on average contain 50 neurons/mm^2. The treated cultures, no matter what the compound and dose used, contain more than 500 neurons/mm^2.

[4] = tested on: synaptosomal striatal (^3 H)DA capture; experiment: Inhibition test of the synaptosomal striatal sample (capture) of (^3 H)DA; assay type: biochemical, Wistar rats; settings: for IC50: rat striatal synaptosomes, 5 nM (^3 H)DA, 5 min at 30° C., pH 7.4, read-out: ^3 HDA IC50; for ^3 HDA/^3 H-TCP: ratio of IC50
Protocol: This test is carried out according to the method used by Vignon and Lazdunski operating in the following way. Wistar rats weighing 200 to 250 g are killed by cervical dislocation. Their brains are rapidly removed and the striae dissected on ice. The striae are then homogenized with a Teflon glass Potter homogenizer in 50 volumes of tris HCl 10 mM buffer containing 0.32M of sucrose at pH 7.4 and they are centrifuged at 1000 g for 10 min. The supernatants are further centrifuged at 10000 g for 20 min. The resulting deposits P2 containing the crude synaptosomes are used without supplementary purification.
The synaptosomes are balanced with the compound to be tested for 30 min at 30° C. in the Ringer medium (mM: 140 NaCl, 5 KCl, 2.6 CaCl2, 1.3 MgSO4, 10 tris-HCl, pH=7.4)+200 μM of pargyline. This is followed by the addition of (^3 H)DA labelled dopamine at a final concentration of 5 nM for 5 min at 30° C. and sampling is interrupted by filtration of the incubate (150 μl) on GF/B filters. The non-specific sample is measured at 4° C. in parallel incubations and is deducted from the total sample at 30° C. The IC50 is the compound concentration preventing 50% of the specific capture compared with the control in the absence of an inhibitor.

hippocampal cells = experiment: Protection of hippocampal cells in vitro against acute glutamate damage; assay type: cell-based, rat; design: key: ++: severe damage; +: partial protection; -: no damage; settings: 24 h after 5 min exposure to glutamate
Protocol: (§1) This example illustrates the effect of the arylcyclohexylamines according to the invention on in vitro cultures of rat brain cells as a neuroprotector against acute attacks caused by the presence of glutamate.
(§2) Cortical and hippocampal neuron cultures were prepared from the fetuses of rats aged from 17 to 18 days. The hemispheres or hippocampi are dissected and immersed in a buffer containing EDTA (Versene) for 10 min. The tissues are then mechanically dissociated in a saline PUCK solution free from calcium and magnesium and centrifuged at 70 g for 10 min. The centrifuging deposit is resuspended in a culture medium constituted by 60% of the minimum essential Eagle medium (MEM), 25% of a saline Hank solution, 5% of human serum, 5% of calf foetus serum, 5% of embryo extract and which are complemented with 6% glucose. The cells are introduced at a density of 10^6 cells per ml into 24 Wells previously coated with polylysine D. The cultures are allowed to grow for 3 weeks, […] of the culture medium being renewed every 3 days. The test is carried out in the following way. Glutamate dissolved in 10 μl of MEM is added to the medium in order to obtain a final glutamate concentration of 5·10^-4 M. After exposure for 5 min, the medium is changed. For studying the antagonist derivatives of the glutamate, to the culture medium is added the compound to be test in 10 μl of MEM in order to obtain a final concentration of compound of 200, 20 or 0.2·10^-6 M. Five minutes later, glutamate is added to the medium and then the medium is replenished after exposure for 5 minutes. The protected and unprotected cultures are then examined and photographed at intervals between 30 min and 24 h.

site of TCP = experiment: Affinity for the TCP site, competition with (^3 H)TCP on rat brain homogenates; assay type: binding; settings: rat brain homogenate, pH 7.7, 25° C., 1 nmole tritiated ligand; read-out: ^3 HTCP IC50
[5] = tested on: cortical and hippocampal neurons; experiment: Protection of cortical and hippocampal neuron cultures against glutamate; assay type: cell-based, rat
Protocol: as §1, §2

cortical cells = experiment: Protection of cortical cells in vitro against acute glutamate damage; assay type: cell-based, rat; design: key: ++: severe damage; +: partial protection; -: no damage; settings: 24 h after 5 min exposure to glutamate
Protocol: as §1, §2

Purkinje cells = experiment: Cerebral aging in mice, histology of the cerebellum; assay type: in vivo; settings: cerebellum and hippocampus, compared with TCP
Protocol: This example illustrates the effect of arylcyclohexylamines on cerebral aging. No matter what the cause of the cerebral aging (vascular or degenerative), it leads to a neuronal loss at the cerebral cortex, the hippocampas and to a lesser extent the cerebellum. This cellular loss can be quantified by simple histological methods and evaluated on a larger scale by means of semi-automatic image analysis methods.
In this example 6 mice aged 23 months by intraperitonealy injecting 3 of them with 5 mg/kg of TCP in the physiological solute at the 23rd, 24th and 25th months and 3 other mice were intraperitonealy injected with the physiological solute only. At the 26th month, all the mice were sacrificed by intracardial perfusion of a 5% glutaraldehyde solution, the brains were cut up with the vibratone and the sections dyed by the NISSL method.
The results obtained are given in FIGS. 2 to 5, which are sections of the brain and the cerebellum of the treated mice and the untreated control mice.

receptor of the opiates = target: T1, receptor of the opiates (Rattus norvegicus, UniProt P33535); experiment: Competition test with ^3 H-DHM for the receptor of the opiates; assay type: binding
T1 construct: variable concentrations of the tested compound and a rat brain homogenate; from tissue; host or cells: rat brain homogenate
T1 sequence (P33535 whole entry): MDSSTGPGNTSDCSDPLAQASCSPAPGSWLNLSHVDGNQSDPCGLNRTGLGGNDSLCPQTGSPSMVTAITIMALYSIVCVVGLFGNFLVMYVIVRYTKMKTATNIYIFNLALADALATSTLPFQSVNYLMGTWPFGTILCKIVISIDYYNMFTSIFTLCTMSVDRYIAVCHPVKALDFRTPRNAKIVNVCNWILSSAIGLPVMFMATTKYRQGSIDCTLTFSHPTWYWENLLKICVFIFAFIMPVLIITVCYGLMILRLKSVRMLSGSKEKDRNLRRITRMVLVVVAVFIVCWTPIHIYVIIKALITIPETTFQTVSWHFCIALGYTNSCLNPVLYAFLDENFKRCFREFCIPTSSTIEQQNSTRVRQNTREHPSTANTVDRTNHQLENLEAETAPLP
Protocol: In this test, a fixed concentration of ^3 H-DHM labelled morphine was incubated in the presence of variable concentrations of the tested compound and a rat brain homogenate. The concentration of the compound preventing the fixing of 50% of ^3 H-DHM (IC50) is a measure of the affinity of the compound for the receptor of the opiates. The latter also gives the results obtained with PCP and TCP, as well as the ratios H^3 DA/^3 H-TCP, ^3 HQNB/^3 H-TCP and ^3 HDHM/^3 HTCP obtained with the different tested compounds.

[6] = Swiss mice, subcutaneous, dose at which 50% of the animals drop, read-out: ED50

Row | SMILES | IC50 (site of PCP) | IC50 [1] | ^3 HQNB/^3 HTCP [1] | ED50 (Swiss mice; [6]) | IC50 [4] | ^3 HDA/^3 H-TCP [4] | also measured
1 | C[C@H]1CC[C@@](c2cccc(F)c2)(N2CCCC(CO)C2)CC1 (stereo partly shown) [compound 7, ((fluoro-3 phenyl)-1)-r-((hydroxymethyl-3 piperidino)-1)-1-c-methyl-4 cyclohexane] | 4.5 µM | 760 µM | 168 |  |  |  | 
2 | OCC1CCCN(C2(c3cccs3)CCCCC2)C1 (stereo not shown) [compound 3, [(hydroxymethyl-3piperidino)-1]-1 (thienyl-2)-1 cyclohexane] | 0.7 µM | 90 µM | 128 | 0.68 mg/kg |  |  | LD50 [2]: > 60 mg/kg
3 | C[C@]12N[C@H](Cc3ccccc31)c1ccccc12 [MK801, (+)-methyl-5-dihydro-10,11(5H)dibenzo(A,D) cyclohepteneimine-5,10, reference compound] |  |  |  |  |  |  | number of neurons which survived after 2 months culturing [3]: more than 500 neurons/mm^2
4 | CC1CCN(C2(c3ccccc3)CCCCC2)CC1 [compound 1, ((methyl-4 piperidino)-1)-1 phenyl-1 cyclohexane] | 0.4 µM |  |  | 20 mg/kg | 5 µM | 125 | 
5 | C1=CCN(C2(c3cccs3)CCCCC2)CC1 [Compound No. 2, ((tetrahydro-1,2,5,6pyridino)-1)-1 (thienyl-2)-1 cyclohexane] | 0.017 µM | 25 µM | 961 | 4 mg/kg | 4.7 µM |  | Treatment of hippocampal cells, damage (hippocampal cells; 0.2 μM): ++; Treatment of hippocampal cells, damage (hippocampal cells; 2 μM): +; Treatment of hippocampal cells, damage (hippocampal cells; 20 μM): -; Treatment of hippocampal cells, damage (hippocampal cells; 200 μM): -; IC50 (site of TCP): 0.026 µM; protection of the cultures against glutamate ([5]; 0.2 μmole, 24 h after 5 min exposure to glutamate): no protection; protection of the cultures against glutamate ([5]; 2 μmole, 24 h after 5 min exposure to glutamate): only a limited protection; damage of the cultures by glutamate ([5]; 20 μmole, 24 h after 5 min exposure to glutamate): only very slightly damaged; appearance of hippocampal and cortical cell cultures ([5]; after 24 h, glutamate exposure): appear healthy in the same way as the control cells; acute swelling ([5]; glutamate exposure): less intense; necrosis ([5]; glutamate exposure): completely blocked; Treatment of cortical cells, damage (cortical cells; 0.2 μM): ++; Treatment of cortical cells, damage (cortical cells; 2 μM): +; Treatment of cortical cells, damage (cortical cells; 20 μM): -; Treatment of cortical cells, damage (cortical cells; 200 μM): -
6 | CC(=O)OCC1CCCN(C2(c3ccccc3)CCCCC2)C1 (stereo not shown) [compound 6, acetate of ((hydroxymethyl-3-piperidino)-1)-1 phenyl-1 cyclohexane] | 1.1 µM | 140 µM | 127 |  |  |  | 
7 | C[C@H]1CC[C@](c2cccs2)(N2CCCCC2)CC1 [compound 10] | 0.14 µM | 29.3 µM | 862 | 19 mg/kg | 3.6 µM | 105 | IC50 (site of TCP): 0.034 µM
8 | O[C@H]1CCCC[C@]1(c1ccccc1)N1CCCCC1 (relative stereo) [compound 11, t-hydroxy-2 phenyl-1-r-(piperidino-1)-1 cyclohexane] | 1.17 µM | 125 µM | 106.8 | 17 mg/kg |  |  | 
9 | C[C@@H]1CCCC[C@]1(c1cccs1)N1CCCCC1 (relative stereo) [compound 9, c-methyl-2-r-(piperidino-1)-1 (thienyl-2)-1 cyclohexane] |  | 12 µM |  | 3.5 mg/kg | 7.9 µM | 415 | cerebral aging experiment repeated in place of TCP (Purkinje cells): equivalent results were obtained; neuron survival, comparison in words ([3]; compound 9 at 5 μmole/liter, 2 months culturing): comparable result to that of TCP at 20 μmole/l and that of MK801 at 5 μmole/l; also recorded: effectiveness equal to that of the reference compound MK801; number of neurons which survived after 2 months culturing [3]: more than 500 neurons/mm^2; IC50 (receptor of the opiates; rat brain homogenate, read-out: ^3 HDHM IC50): 5 µM
10 | C[C@H]1CC[C@@](c2cccs2)(N2CCCC(CO)C2)CC1 (stereo partly shown) [compound 5, r-(hydroxymethyl-3-piperidino)-1-c-methyl-4 (thienyl-2)-1 cyclohexane] | 0.38 µM | 110 µM | 289 | 8 mg/kg |  |  | 
11 | c1ccc(C2(N3CCCCC3)CCCCC2)cc1 [PCP, 1-(1-phenylcyclohexyl)-piperidine, reference compound] | 0.25 µM | 30 µM | 150 |  | 0.5 µM | 2.5 | IC50 (site of TCP): 0.2 µM; IC50 (receptor of the opiates): 26 µM; ^3 HDHM/^3 HTCP (receptor of the opiates; ratio of IC50): 130; ED50 (Swiss mice): 4 mg/kg
12 | ClCC1CCCN(C2(c3cccs3)CCCCC2)C1 (stereo not shown) [compound 8, [(chloromethyl-3 piperidino)-1]-1 (thienyl-2)-1 cyclohexane] | 0.56 µM | 870 µM | 1553 | 150 mg/kg |  |  | rotary bar activity, in words (Swiss mice; Swiss mice, subcutaneous): low activity compared with the other compounds
